“And” between values parts separate entries of the source, which are not always exact repeats. Identical values can stand only once. “Also recorded” adds a separate entry of the source.
Columns and labels:
[1] = Optical titration (absorbance) of acridine orange with xanthines/purines, Kassoc from delta absorbance; format: binding; conditions: for K ± S.D.: AO-CAF, Absorbance, AO [10 μM], CAF [1-5000 μM], this study; for enhancement of the ability of theophylline to complex AO: Kassoc relative to theophylline; for Kassoc ± S.E.: binding affinity between acridine orange (10 μM) and compound, 5 mM HEPES pH 7.0, 25±1° C., 0 = no measurable association detected
Description: A red spectral shift in the optical adsorption maximum of AO upon the addition of a particular xanthine, indicates the possibility of a complex being formed between the two compounds. Spectral shifts can be measured by optical titrations.
Optical titrations (serial additions of various xanthines to a solution of AO) were performed on a Beckman DU-600 Scanning Spectrophotometer (Beckman Instrument Co., New York, N.Y.) using a 3 mL (1-cm light path) quartz cuvette containing 2.0 mL of a […]. The DU600 Spectrophotometer was blanked with 2 mL of a pH 7.0 buffered 5 mM HEPES solution over the full range of wavelengths to be scanned prior to sample analysis. This reduced the need to subtract the background absorbance from the HEPES buffer. Optical absorbance scans were performed over a wavelength range preferably from 400 nm to 550 nm. […] The 10 μM AO solution was scanned before the start of each titration series to quantitatively monitor any changes in the absorbance spectrum. Optical absorbance experiments were performed using aliquots varying in volume from 1:L to 20:L taken from prepared xanthine stock solutions (5 mM to 50 mM) and titrated into the cuvette containing 2.0 mL of the 10 μM AO solution. The solution in the cuvette was then thoroughly mixed by 10 seconds of shaking before scanning. All titrations were performed at room temperature (25±1° C.). The absorbance spectra were measured in 1 nm intervals and stored in digital form. Digitized scan data was converted to a Lotus Spreadsheet file (*.wk1) using a conversion program supplied by the manufacturer (Beckman Instruments Inc.) then imported into a Microsoft Excel 97™ Workbook file (*.xls) and saved in this format for further analysis. Spectral data for each titration was combined and expressed in graphic form (Excel™) (X-axis=wavelength in nm; Y-axis=optical absorbance) for each xanthine titrated with AO. […] Adjusted absorption values were plotted and compared to spectra from non-complexed AO. This allowed for the visualization of an expected spectral shift that occurs when AO forms a complex with a xanthine.
The association constant, Kassoc, may be used to analyze the binding ability of modified xanthines to DNA intercalators. The association constant may be calculated based upon a differential shift in the absorbance spectrum. When the presence of the xanthine caused a spectral shift, a difference absorbance plot or delta plot was obtained. Delta plots were constructed by subtracting the adjusted absorption spectrum of AO in the presence of the xanthine from the initial spectrum of AO alone at each wavelength and for each aliquot of the titration. This procedure allowed for the creation of difference absorption values or delta absorption values. Delta absorption values obtained in this manner (Y-axis=delta absorption) were plotted against wavelength in nm (X-axis). The appearance of a single isobestic point was indicative of only two species present in solution, AO, and an AO complex. Graphic representation allowed for the selection of a wavelength with the maximum sensitivity for determining the association constant. This wavelength was characterized by the greatest positive response in delta absorbance values observed upon addition of each aliquot of xanthine to the AO solution. The AO-xanthine association or binding constant was determined by the following equilibrium expression: I+X≡IX EQUATION 1: […]
Where I represents the intercalator (AO), X represents the interceptor molecule (xanthine), and IX represents the AO-xanthine complex, respectively.

[2] = Fluorescence of 2 μM acridine orange solution with NaCl, caffeine and/or dsDNA
Description: The addition of salt could possibly affect the Kassoc values of AO and the other reactants by modifying the charge on the reactants and/or decreasing the influence of water molecules. To minimize AO self-association, i.e. dimerization, a relatively low concentration of AO [2 μM] may be used. The interaction between reactants was analyzed by spectrofluorometric methods at λex 485 nm and monitored at λem 530 nm (green).
Solutions of 2 μM AO alone and in various combinations with 150 mM NaCl, 5 mM CAF, 2 mM DNA were studied. Table 3-2 summarizes the results and the statistical analysis for differences between means.
In Table 3-2, fluorescence (λex=485 nm and λem=530 nm) was measured for AO [2 μM] in the absence of, and in the presence of, NaCl [150 mM], caffeine [5 mM], and DNA [2 mM] alone or in combination. Significant differences were found by one-way ANOVA (p≦0.05). […] It is noted that n=3 unless denoted by an * which indicates n=4.
Spectrofluorometric analyses at λex 485 nm and λem 530 nm were performed on solutions of 2:M AO in combination with 5 mM CAF and 2 mM dsDNA, with and without 150 mM NaCl. […] Note that CAF had no significant effect on the fluorescence of the AO solution when in the presence of NaCl (SNK letter designation “B”).

[3] = system: chicken erythrocyte nuclear chromatin; test: Quantified removal of intercalated AO from chicken erythrocyte smears, fluorescence plate reader; conditions: 100 mM xanthine, static, 10 seconds to two hours, AO 1 mM 10 sec stain, λex 485 nm, λem 530 nm
Description: Microscope slides (slides) coated with chicken erythrocytes were stained by placing the slide into a 50 ml beaker filled with a 1 mM solution of AO prepared in distilled water for approximately 10 seconds (static) followed by three successive 10 second rinses in distilled water before drying at room temperature. Care was taken to store all slides in the dark when not in use to avoid photobleaching. Stained slides were dried prior to being exposed to 50 ml of a 100 mM solution of either CAF or aminophylline (AM) for set time periods under static conditions. Exposure to the xanthine solution was followed by three 10-second rinses with distilled water and drying of the slides in the dark prior to fluorescence analysis. Control slides consisted of erythrocyte coated slides that were subsequently placed in only distilled water (no stain) prior to drying, blank slides (no erythrocytes) placed in AO staining solutions then dried served as negative controls, and erythrocyte coated cells stained with AO but exposed to only distilled water and not a xanthine solution served as positive control. The stained microscope slides were then attached by tape to a plastic frame (upside down 96-well plate cover) and fluorescence determined using a Perkin-Elmer Model HTS 7000 Bio Assay Reader with λex 485nm and λem 530 with the gain set at 40.
Distilled water served as solvent control (n=8).

[4] = Table 4-2, in parentheses under compound, taken from Table 2-1
[5] = Table 4-3, taken from Table 2-1
[6] = 2 μM AO, caffeine 5 mM, dsDNA 2 mM where present, λex 485 nm, λem 530 nm

Structure (SMILES)	K ± S.D. [1]	K ± S.D. ([1]; listed as CAF-AO) [M⁻¹]	enhancement of the ability of theophylline to complex AO [1] [%]	Kassoc ([1]; Table 2-2, Kassoc value with acridine orange (this report)) [M⁻¹]	Kassoc [1, 4]	Kassoc [1, 5] [M⁻¹]	Kassoc ± S.E. [1]	Kassoc ± S.E. ([1]; listed as CAF) [M⁻¹]	Kassoc ± S.E. ([1]; listed as CAF-AO) [M⁻¹]	Kassoc ± S.E. ([1]; listed as CAP) [M⁻¹]	increase of fluorescence of 2 μM AO at 530 nm by addition ([2]; 2 mM DNA or 5 mM CAF, without NaCl) [%]	increase in fluorescence intensity of AO by addition ([2]; DNA or CAF in the presence of 150 mM NaCl) [%]	reduction of fluorescence (removal of AO) versus time of exposure [3]	Kassoc ± S.E. ([1]; listed as AM) [M⁻¹]	Kassoc ± S.E. ([1]; listed as aminophylline)	reduction of fluorescence (removal of AO) versus time of exposure ([3]; listed as AM)	Fluorescence With NaCl [150 mM] Mean ± S.E. [2, 6]	Fluorescence Without NaCl Mean ± S.E. [2, 6]
Cn1c(=O)c2c(ncn2C)n(C)c1=O [1,3,7-trimethyl xanthine (caffeine), 1,3,7-trimethyl xanthine]	255 ± 5 M⁻¹ and 256 ± 5 M⁻¹	~250	63	256	(256) M^−1	256	255.7 ± 4.8^c M^−1	256	256	~256	29	36	followed first order decay kinetics					
Cn1c(=O)c2[nH]cnc2n(C)c1=O.NCCN [1,3-dimethyl xanthine ethylenediamine]			280		(596) M^−1	596	596.2 ± 6.5 M⁻¹							596	596.2 M⁻¹ and 596 M⁻¹	followed first order decay kinetics; also recorded: more rapid removal of AO from the nuclear chromatin		
CN(C)c1ccc2cc3ccc(N(C)C)cc3nc2c1.Cl [AO, 3,6-bis[dimethylamino]acridine hydrochloride]																	635.5 ± 17.7 (B)	514.0 ± 6.5 (A) ^

Source: patent US7662767B2, “Polynucleotide intercalator interceptors and inhibitors” (Materials Evolution and Development USA, Inc., priority 2000, dated 2010)
